The results in this text go back to patent US8258115B2, “Stable salts of S-adenosylmethionine and process for the preparation thereof” (priority 2007, dated 2012).

Holding throughout (format): physicochemical
Series [1] in a line: Stability test in thermostated heaters at 25° C. and 60% R.H., active ingredient %. The settings on record: heat-sealed aluminium/aluminium bags. On the procedure: (§1) In the following Tables 2-13, the percentage values are repotted which were obtained in the stability tests carried out on the products of examples 1-6. The stability tests were carried out in thermostated heaters at 40° C. and 75% R.H (tables 2-7) as well as 25° C. and 60% R.H. (tables 8-13), preserving the samples in heat-sealed aluminium/aluminium bags according to the following criteria: the active ingredient % was determined for every sampling point taken under consideration.

A short description of series [2]: Degradation of the active stereoisomer S,S at 40° C. and 75% R.H. The procedure: (§2) In the following Tables 14-25, the percentage values are reported of the degradation of the active stereoisomer S,S calculated at 40° C. and 75% R.H. (Tables 14-19) and at 25° C. and 65% R.H.
A short description of series [3]: Moisture % K.F. of the stability samples. The settings on record: sample used in the stability test. On the procedure:
In the following Tables 2-13, the percentage values are repotted which were obtained in the stability tests carried out on the products of examples 1-6. The stability tests were carried out in thermostated heaters at 40° C. and 75% R.H (tables 2-7) as well as 25° C. and 60% R.H. (tables 8-13), preserving the samples in heat-sealed aluminium/aluminium bags according to the following criteria: […]

Series [4] can be described thus: Degradation of the active stereoisomer S,S at 25° C. and 65% R.H. The procedure:
as §2

Series [5] is described as follows: Stability test in thermostated heaters at 40° C. and 75% R.H., active ingredient %. As to conditions: heat-sealed aluminium/aluminium bags. The procedure:
as §1

Consider `C[S+](CCC(N)C(=O)[O-])C[C@H]1O[C@@H](n2cnc3c(N)ncnc32)[C@H](O)[C@@H]1O.O=S(=O)(O)O.O=S(=O)(O)O.[Cl-].[Cl-].[Mg+2]` (stereo partly shown) [SAMe•2.0H2SO4•1.0MgCl2], for which the “stability test percentage value (active ingredient %), 30 days” value in series [1] is reported as 0.10%; in series [5], 0.19%. Besides, the figures for the “stability test percentage value (active ingredient %), 90 days” value in series [1] and in series [5] were 0.18% and 0.82%, respectively. The figures for the “stability test percentage value (active ingredient %), 180 days” value in series [1] and in series [5] were 0.25% and 1.87%, respectively. Further, the “stability test percentage value (active ingredient %), 360 days” value in series [1] amounted to 0.49%. In addition, in series [1], the “stability test percentage value (active ingredient %), 720 days” value stood at 0.62%. Moreover, the “percentage of active S,S stereoisomer remaining” value in series [2] (30 days) turned out to be 89.3%; in series [2] (60 days) it was 85.3%; in series [2] (90 days) it was 83.3%; in series [2] (120 days), 89.3%; in series [2] (180 days), 75.3%; in series [2] (T = 0), 97.2%. Further, the “Moisture % K.F.” value in series [3] is 0.52%. In addition, the “percentage of the active S,S stereoisomer remaining” value in series [4] (30 days) is recorded as 96.3%; in series [4] (90 days), 95.3%; in series [4] (180 days) it was 93.3%; in series [4] (360 days), 91.0%; in series [4] (720 days) it was 88.0%; in series [4] (T = 0) it was 97.2%. Further, in series [5], the “stability test percentage value (active ingredient %), 60 days” value turned out to be 0.34%. Besides, in series [5], the “stability test percentage value (active ingredient %), 120 days” value is 1.12%.
`C[S+](CCC(N)C(=O)[O-])C[C@H]1O[C@@H](n2cnc3c(N)ncnc32)[C@H](O)[C@@H]1O.C[S+](CCC(N)C(=O)[O-])C[C@H]1O[C@@H](n2cnc3c(N)ncnc32)[C@H](O)[C@@H]1O.O=S(=O)(O)O.[Cl-].[Cl-].[Mg+2]` (stereo partly shown) [SAMe•0.5H2SO4•0.5MgCl2]: the figures for the “stability test percentage value (active ingredient %), 30 days” value in series [1] and in series [5] were 0.12% and 0.36%, respectively. Also, the “stability test percentage value (active ingredient %), 90 days” value in series [1] worked out at 0.25%; in series [5], 1.16%. Moreover, the “stability test percentage value (active ingredient %), 180 days” value came to 0.35% in series [1] and 2.45% in series [5]. Also, the “stability test percentage value (active ingredient %), 360 days” value in series [1] came out at 0.57%. The “stability test percentage value (active ingredient %), 720 days” value in series [1] turned out to be 0.79%. For the same compound, the “percentage of active S,S stereoisomer remaining” value in series [2] (30 days) is recorded as 89.8%; in series [2] (60 days), 86.8%; in series [2] (90 days), 83.6%; in series [2] (120 days), 80.6%; in series [2] (180 days), 77.6%; in series [2] (T = 0), 98.2%. In addition, in series [3], the “Moisture % K.F.” value is recorded as 0.61%. For the same compound, the “percentage of the active S,S stereoisomer remaining” value in series [4] (30 days) is 97.8%; in series [4] (90 days), 96.8%; in series [4] (180 days) it was 93.6%; in series [4] (360 days) it was 90.6%; in series [4] (720 days) it was 87.6%; in series [4] (T = 0), 98.2%. Also, in series [5], the “stability test percentage value (active ingredient %), 60 days” value amounted to 0.70%. Also, in series [5], the “stability test percentage value (active ingredient %), 120 days” value was 1.66%.
On to `C[S+](CCC(N)C(=O)[O-])C[C@H]1O[C@@H](n2cnc3c(N)ncnc32)[C@H](O)[C@@H]1O.O=S(=O)(O)O.O=S(=O)(O)O.O=S(=O)([O-])[O-].[Mg+2]` (stereo partly shown) [SAMe•2.0H2SO4•1.0Mg2SO4•0.4H2O], for which the “stability test percentage value (active ingredient %), 30 days” value is listed as 0.14% in series [1] and 0.33% in series [5]. For the same compound, the “stability test percentage value (active ingredient %), 90 days” value was 0.28% in series [1] and 0.61% in series [5]. Moreover, the “stability test percentage value (active ingredient %), 180 days” value in series [1] worked out at 0.45%; in series [5], 1.59%. Also, the “stability test percentage value (active ingredient %), 360 days” value in series [1] was 0.69%. In addition, the “stability test percentage value (active ingredient %), 720 days” value in series [1] is listed as 0.92%. The “percentage of active S,S stereoisomer remaining” value in series [2] (30 days) is listed as 91.3%; in series [2] (60 days), 89.4%; in series [2] (90 days), 84.1%; in series [2] (120 days), 81.3%; in series [2] (180 days), 75.8%; in series [2] (T = 0) it was 97.5%. Moreover, in series [3], the “Moisture % K.F.” value is given as 0.34%. The “percentage of the active S,S stereoisomer remaining” value amounted to 97.3% in series [4] (30 days); 96.4% in series [4] (90 days); 94.1% in series [4] (180 days); 91.3% in series [4] (360 days); 89.8% in series [4] (720 days); 97.5% in series [4] (T = 0). In addition, the “stability test percentage value (active ingredient %), 60 days” value in series [5] is recorded as 0.44%. Further, in series [5], the “stability test percentage value (active ingredient %), 120 days” value stood at 1.02%.
For `C[S+](CCC(N)C(=O)[O-])C[C@H]1O[C@@H](n2cnc3c(N)ncnc32)[C@H](O)[C@@H]1O.O=S(=O)(O)O.O=S(=O)(O)O.[Ca+2].[Cl-].[Cl-]` (stereo partly shown) [SAMe•2.0H2SO4•1.0CaCl2], the figures for the “stability test percentage value (active ingredient %), 30 days” value in series [1] and in series [5] were 0.16% and 0.17%, respectively. For the same compound, the “stability test percentage value (active ingredient %), 90 days” value in series [1] stood at 0.29%; in series [5], 0.92%. Further, the “stability test percentage value (active ingredient %), 180 days” value is 0.35% in series [1] and 2.70% in series [5]. Moreover, the “stability test percentage value (active ingredient %), 360 days” value in series [1] is recorded as 0.68%. The “stability test percentage value (active ingredient %), 720 days” value in series [1] is 0.82%. For the same compound, the “percentage of active S,S stereoisomer remaining” value is 89.3% in series [2] (30 days); 85.3% in series [2] (60 days); 83.3% in series [2] (90 days); 79.3% in series [2] (120 days); 75.3% in series [2] (180 days); 97.2% in series [2] (T = 0). The “Moisture % K.F.” value in series [3] came to 0.35%. For the same compound, the “percentage of the active S,S stereoisomer remaining” value came to 95.9% in series [4] (30 days); 94.9% in series [4] (90 days); 93.8% in series [4] (180 days); 91.2% in series [4] (360 days); 87.8% in series [4] (720 days); 97.2% in series [4] (T = 0). Besides, the “stability test percentage value (active ingredient %), 60 days” value in series [5] is on record as 0.42%. The “stability test percentage value (active ingredient %), 120 days” value in series [5] stood at 1.52%.
As for `C[S+](CCC(N)C(=O)[O-])C[C@H]1O[C@@H](n2cnc3c(N)ncnc32)[C@H](O)[C@@H]1O.C[S+](CCC(N)C(=O)[O-])C[C@H]1O[C@@H](n2cnc3c(N)ncnc32)[C@H](O)[C@@H]1O.O=S(=O)(O)O.O=S(=O)([O-])[O-].[Mg+2]` (stereo partly shown) [SAMe•0.5H2SO4•0.5Mg2SO4•0.4H2O], the “stability test percentage value (active ingredient %), 30 days” value worked out at 0.23% in series [1] and 0.57% in series [5]. Also, the “stability test percentage value (active ingredient %), 90 days” value in series [1] is listed as 0.45%; in series [5], 0.96%. The “stability test percentage value (active ingredient %), 180 days” value in series [1] is listed as 0.65%; in series [5], 2.18%. In addition, in series [1], the “stability test percentage value (active ingredient %), 360 days” value is 0.87%. In addition, the “stability test percentage value (active ingredient %), 720 days” value in series [1] is on record as 0.99%. Besides, the “percentage of active S,S stereoisomer remaining” value in series [2] (30 days) stood at 90.8%; in series [2] (60 days), 88.8%; in series [2] (90 days), 85.6%; in series [2] (120 days) it was 82.6%; in series [2] (180 days), 78.6%; in series [2] (T = 0), 98.2%. For the same compound, the “Moisture % K.F.” value in series [3] turned out to be 0.57%. The “percentage of the active S,S stereoisomer remaining” value in series [4] (30 days) is 97.8%; in series [4] (90 days) it was 96.8%; in series [4] (180 days), 95.6%; in series [4] (360 days), 92.6%; in series [4] (720 days), 88.6%; in series [4] (T = 0), 98.2%. Besides, the “stability test percentage value (active ingredient %), 60 days” value in series [5] turned out to be 0.65%. In addition, the “stability test percentage value (active ingredient %), 120 days” value in series [5] was found to be 1.40%.
